# Laboratory results published in patent US20160067246A1, “USE OF PHOSPHODIESTERASE 5A INHIBITORS FOR THE TREATMENT OF MUSCULAR DYSTROPHY” (CEDARS-SINAI MEDICAL CENTER, priority 2013, published 2016).
# “And” between values parts separate entries of the source, which are not always exact repeats. Identical values can stand only once. Like-named read-outs stand apart in the source and are kept apart here.
# Legend:
# Assay type in all cases: in vivo, human
# [1] = Pharmacokinetic study and drug blood levels in boys with DMD; details: for half-life: serum, oral, read-out: elimination half-life (converted)
# Protocol: Serum blood samples for pharmacokinetic determinations were collected from patients at time 0-hr, 0.25-hr, 0.5-hr, 1-hr, 2-hr, 4-hr, 8-hr, and 24-hr following each treatment (sildenafil and tadalafil) and each dose (0.5 vs. 1.0 mg/kg). Blood levels were measured with high-performance liquid chromatography-tandem mass spectrometry (NMS Labs).
# (§1) Patients received 0.5 mg/kg of oral sildenafil or tadalafil on day 1, followed by 1.0 mg/kg of sildenafil or tadalafil on day 2. Patients then crossed over 2 weeks later for the opposite drug. Experiments were performed 1 hour (sildenafil) or 3 hours (tadalafil) after oral treatment to match the experiment with the peak blood level. Patients were queried about potential side-effects throughout the study visit.
# [2] = tested on: boys with Duchenne muscular dystrophy (DMD); assay: Functional sympatholysis (LBNP, NIR spectroscopy, rest vs handgrip) with PDE5 inhibition in DMD; details: DMD
# Protocol: Forearm muscle oxygenation was measured with near-infrared (NIR) spectroscopy, as previously described.^4B Briefly, optodes were placed over the belly of the flexor digitorum profundus, the main muscle recruited during handgrip. The optodes were housed in a customized flexible rubber casing, ensuring a fixed and invariant position of the optodes relative to each other, and was secured to the skin with adhesive. The optodes were covered with an optically dense, black vinyl sheet, to minimize interference from external light or loss of NIR transmitted light. The forearm was wrapped with an elastic bandage to minimize movement of the optodes.
# Before each experiment, absorption and scattering coefficients were calibrated against an external standard. After each experiment, a cuff was inflated on the upper arm to supra-systolic pressure of 200 mmHg to establish the total labile signal (TLS, the difference between the baseline and nadir in muscle tissue oxygenation). Changes in forearm tissue oxygenation were expressed as a percentage of TLS.
# Handgrip exercise was performed with a dynamometer (Smedley Hand Dynamometer modified by Stoelting). To determine maximal voluntary contraction (MVC), each subject was asked to grip the dynamometer as hard as possible. […] Subjects performed intermittent isometric handgrip (20 handgrips per minute, 50% duty cycle) at 20% MVC for 7 minutes.
# The subjects lower body was enclosed in a negative pressure chamber to the level of the iliac crest as previously described.^9B The pressure of the chamber was measured by a Statham transducer (Gould Inc.). Lower body negative pressure (LBNP) at −20 mmHg simulates mild orthostatic stress (that is, transition from the supine to the seated position). This technique mainly unloads the cardiopulmonary baroreceptors, producing highly reproducible reflex increases in sympathetic vasoconstrictor drive to the skeletal muscle vasculature without changing systemic blood pressure.^9B
# The subjects' lower body was enclosed in a negative pressure chamber to the level of the iliac crest as previously described. The pressure in the chamber was measured by a Statham transducer (Gould Inc.). Lower body negative pressure (LBNP) at −20 to −30 mmHg simulates mild orthostatic stress caused by transition from the supine to the seated position. This technique mainly unloads the low-pressure cardiopulmonary baroreceptors, producing highly reproducible reflex increases in sympathetic vasoconstrictor drive to the skeletal muscle vasculature without changing systemic blood pressure. To measure exercise-induced attenuation of reflex vasoconstriction (i.e., functional sympatholysis), the LBNP was (i) applied at rest, and then (ii) superimposed on mild rhythmic handgrip at 20% MVC. Reflex vasoconstriction was measured as the LBNP-induced decrease in forearm muscle oxygenation by NIR spectroscopy. Using the pressure inside the LBNP chamber as a trigger, the Powerlab software was programed to mean the HbO2+MbO2 signal for 20 seconds before the onset of LBNP and for 20 seconds before the offset of LBNP; the difference between these mean values was taken as the LBNP-induced change in forearm muscle tissue oxygenation (20). Blood pressure, heart rate, and handgrip force were also recorded in response to 2 minutes of LBNP applied at rest and during the third to fifth minutes of the 7-minute exercise protocol.
# as §1, with “visit. […]” for “visit.”
# [3] = Tadalafil blood levels by HPLC/tandem MS in BMD patients
# Protocol: (§2) The order of tadalafil/placebo was random. The research pharmacist placed tadalafil tablets or lactose powder (placebo) in opaque capsules to blind patients and investigators, both for the test dose and study dose of drug or placebo. Patients were queried about potential tadalafil-specific side-effects both for safety monitoring and to assess whether blinding was maintained. tadalafil blood levels were measured using high performance liquid chromatography/tandem mass spectrometry (NMS Labs Willow Grove, Pa.).
# [4] = tested on: boys with Duchenne muscular dystrophy (DMD); assay: Safety data / side-effects of PDE5 inhibitors in boys with DMD
# Protocol: Subjects were studied in the supine position. Heart rate was measured continuously by electrocardiography, and blood pressure measured by automated oscillometric sphygomanometry using a child's cuff (Welch Allyn Vital Signs Monitor 300 Series).
# as §1
# [5] = tested on: patients with Becker muscular dystrophy (BMD); assay: Blood pressure, heart rate and adverse events in BMD tadalafil trial
# Protocol: as §2, with “Subjects were studied in the supine position. Heart rate was measured continuously by electrocardiography and BP by automated oscillometric sphygmomanometry ([…] Monitor 300 Series, […].). […] The order” for “The order”
# [6] = 0.5 mg/kg oral, analysis of 10 of the 12 boys
# [7] = 0.5 mg/kg oral, analysis using all 12 boys
# [8] = 1.0 mg/kg oral, analysis of 10 of the 12 boys
# [9] = 1.0 mg/kg oral, analysis using all 12 boys
smiles,measurement,setting,value
CN1CC(=O)N2[C@H](c3ccc4c(c3)OCO4)c3[nH]c4ccccc4c3C[C@@H]2C1=O [tadalafil],peak blood level,"[1]; boys with DMD, 1.0 mg/kg oral",492.5 ± 47.3 ng/mL
same,time of peak blood level after oral administration,"[1]; boys with DMD, 0.5 and 1.0 mg/kg oral",2 to 4 h
same,time the drug remained elevated in the blood,"[1]; male, human, in vivo, po",up to 24 hours
same,half-life,"[1]; male, human, boys with DMD, 0.5 mg/kg dose",24.9 ± 3.1 h
same,half-life,"[1]; male, human, boys with DMD, 1.0 mg/kg dose",39.5 ± 6.6 h
same,attenuation of the reflex decrease in muscle oxygenation during handgrip,[2]; [6],45±8%
same,attenuation of the reflex decrease in muscle oxygenation during handgrip,"[2]; 0.5 mg/kg oral, analysis using all 12 boys (NIR in 10)",57±16%
same,LBNP-induced ΔHbO2+MbO2 (% TLS) at rest,[2]; [6],−20±2%
same,LBNP-induced ΔHbO2+MbO2 (% TLS) at rest,[2]; [7],−20±2%
same,LBNP-induced ΔHbO2+MbO2 (% TLS) during handgrip,[2]; [6],−11±1%
same,LBNP-induced ΔHbO2+MbO2 (% TLS) during handgrip,[2]; [7],−9±3%
same,attenuation of the reflex decrease in muscle oxygenation during handgrip,[2]; [8],63±5%
same,attenuation of the reflex decrease in muscle oxygenation during handgrip,"[2]; 1.0 mg/kg oral, analysis using all 12 boys (NIR in 10)",80±11%
same,LBNP-induced ΔHbO2+MbO2 (% TLS) at rest,[2]; [8],−17±1%
same,LBNP-induced ΔHbO2+MbO2 (% TLS) at rest,[2]; [9],−16±2%
same,LBNP-induced ΔHbO2+MbO2 (% TLS) during handgrip,[2]; [8],−7±1%
same,LBNP-induced ΔHbO2+MbO2 (% TLS) during handgrip,[2]; [9],−4±2%
same,peak blood concentration of tadalafil in patient P10 (no sympatholysis),"[3]; BMD patient P10, 20 mg oral",300 ng/mL
same,"peak tadalafil blood concentration, mean","[3]; BMD patients, 20 mg oral",260 ± 13 ng/mL
same,"peak tadalafil blood concentrations, range","[3]; BMD patients, 20 mg oral",170 to 310 ng/mL
same,duration of (penile) erection in an individual patient,[4]; higher dose 1.0 mg/kg,4 h
same,duration of (penile) erection in an individual patient,"[4]; low dose 0.5 mg/kg, 0.5 mg/kg",> 4 h and 3 h and 6 h
same,adverse events or side-effects,[5]; 10 mg test dose and 20 mg study dose,no adverse events or side-effects
same,diastolic blood pressure post-tadalafil,"[5]; post-tadalafil (pre 72±2), P>0.05",73±3 mm Hg
same,heart rate post-tadalafil,"[5]; post-tadalafil (pre 84±4), P>0.05",80±4 beats per minute
same,systolic blood pressure post-tadalafil,"[5]; post-tadalafil (pre 116±3), P>0.05",114±4 mmHg
